Data: patent US20240083857A1, “2-Methyl-Quinazolines” (Bayer Pharma Aktiengesellschaft, priority 2017, published 2024)

How the values were obtained:
[1] = molecular target: K-Ras^G12C : hSOS1 interaction (Homo sapiens, UniProt Q07889); experiment: Biochemical assay 1: K-Ras^G12C interaction assay with hSOS1 (HTRF); format: binding; conditions: for IC50: read-out: Assay 1 (KRAS-SOS Interaction) activity expressed as IC50; for inhibition at 20 µM: read-out: Assay 1 (KRAS-SOS Interaction) activity expressed as % inhibition at 20 μM
[2] = molecular target: human SOS1 (nucleotide exchange of K-Ras^G12C) (Homo sapiens, UniProt Q07889); experiment: Biochemical assay 2: K-Ras^G12C activation assay by hSOS1 at high GTP concentration (HTRF); conditions: high GTP; for IC50: read-out: Assay 2 (KRAS-Activation by SOS high GTP) activity expressed as IC50; for inhibition at 20 µM: read-out: Assay 2 (KRAS-Activation by SOS high GTP) activity expressed as % inhibition at 20 μM
[3] = molecular target: human SOS1 (loading of human K-Ras^G12C-GDP with fluorescent GTP-analog) (Homo sapiens, UniProt Q07889); experiment: Biochemical assay 3: K-Ras^G12C activation assay by hSOS1 (HTRF); conditions: no GTP; for IC50: read-out: Assay 3 (KRAS-Activation by SOS no GTP) activity expressed as IC50; for inhibition at 20 µM: read-out: Assay 3 (KRAS-Activation by SOS no GTP) activity expressed as % inhibition at 20 μM

SMILES	IC50 [1] [µM]	IC50 [2] [µM]	IC50 [3] [µM]	inhibition at 20 µM [1] [%]	inhibition at 20 µM [2] [%]	inhibition at 20 µM [3] [%]
COc1cc2nc(C)nc(N[C@@H](C)c3ccc(-c4ccoc4)s3)c2cc1OC (racemic) [Example 153, N-{1-[5-(furan-3-yl)thiophen-2-yl]ethyl}-6,7-dimethoxy-2-methylquinazolin-4-amine]	2.35	2.73	4.1			
COc1cc2nc(C)nc(N[C@@H](C)c3ccc(-c4csc5ccccc45)s3)c2cc1OC (racemic) [Example 154, N-{1-[5-(1-benzothiophen-3-yl)thiophen-2-yl]ethyl}-6,7-dimethoxy-2-methylquinazolin-4-amine]	7.82	8.78	12.9			
COc1cc2nc(C)nc(N[C@@H](C)c3ccc(-c4cc5ccccc5n4C)s3)c2cc1OC (racemic) [Example 155, 6,7-dimethoxy-2-methyl-N-{1-[5-(1-methyl-1H-indol-2-yl)thiophen-2-yl]ethyl}quinazolin-4-amine]	0.992	1.47	1.64			
CCC/C=C/c1ccc([C@H](C)Nc2nc(C)nc3cc(OC)c(OC)cc23)s1 (racemic) [Example 156, 6,7-dimethoxy-2-methyl-N-[1-{5-[(1E)-pent-1-en-1-yl]thiophen-2-yl}ethyl]quinazolin-4-amine]	4.12	5.76	10.8			
COc1cc2nc(C)nc(N[C@@H](C)c3ccc(/C=C/C4CCCCC4)s3)c2cc1OC (racemic) [Example 157, N-[1-{5-[(E)-2-cyclohexylethenyl]thiophen-2-yl}ethyl]-6,7-dimethoxy-2-methylquinazolin-4-amine]				44	19	12
COc1cc2nc(C)nc(N[C@@H](C)c3ccc(-c4cccc(/C=C/C#N)c4)s3)c2cc1OC (racemic) [Example 160, (2E)-3-[3-(5-{1-[(6,7-dimethoxy-2-methylquinazolin-4-yl)amino]ethyl}thiophen-2-yl)phenyl]prop-2-enenitrile]	16.1				33	13
COc1cc2nc(C)nc(N[C@@H](C)c3ccc(-c4ccc(C)cc4C)s3)c2cc1OC (racemic) [Example 161, N-{1-[5-(2,4-dimethylphenyl)thiophen-2-yl]ethyl}-6,7-dimethoxy-2-methylquinazolin-4-amine]	4.17	3.97	7			
COc1cc2nc(C)nc(N[C@@H](C)c3ccc(-c4ccc(C(C)=O)s4)s3)c2cc1OC (racemic) [Example 162, 1-(5′-{1-[(6,7-dimethoxy-2-methylquinazolin-4-yl)amino]ethyl}-2,2′-bithiophen-5-yl)ethanone]	8.76	11.6	16			
COc1cc2nc(C)nc(N[C@@H](C)c3ccc(-c4ccccc4NC(C)=O)s3)c2cc1OC (racemic) [Example 166, N-[2-(5-{1-[(6,7-dimethoxy-2-methylquinazolin-4-yl)amino]ethyl}thiophen-2-yl)phenyl]acetamide]	1.8	3.68	4.99			
COc1cc2nc(C)nc(N[C@@H](C)c3ccc(-c4ccccc4S(=O)(=O)N(C)C)s3)c2cc1OC (racemic) [Example 169, 2-(5-{1-[(6,7-dimethoxy-2-methylquinazolin-4-yl)amino]ethyl}thiophen-2-yl)-N,N-dimethylbenzenesulfonamide]	2.16	3.7	4.53			
COc1cc2nc(C)nc(N[C@@H](C)c3ccc(-c4cccc5[nH]ccc45)s3)c2cc1OC (racemic) [Example 171, N-{1-[5-(1H-indol-4-yl)thiophen-2-yl]ethyl}-6,7-dimethoxy-2-methylquinazolin-4-amine]	5.59	3.37	7.18			
COc1ncc(-c2ccc([C@H](C)Nc3nc(C)nc4cc(OC)c(OC)cc34)s2)cn1 (racemic) [Example 172, 6,7-dimethoxy-N-{1-[5-(2-methoxypyrimidin-5-yl)thiophen-2-yl]ethyl}-2-methylquinazolin-4-amine]	4.07	7.33	9.19			
COc1cc2nc(C)nc(N[C@@H](C)c3ccc(-c4ccc5c(c4)CCO5)s3)c2cc1OC (racemic) [Example 174, N-{1-[5-(2,3-dihydro-1-benzofuran-5-yl)thiophen-2-yl]ethyl}-6,7-dimethoxy-2-methylquinazolin-4-amine]	6.92	9.28	18.3			
COc1cc2nc(C)nc(N[C@@H](C)c3ccc(/C=C/c4ccccc4)s3)c2cc1OC (racemic) [Example 175, 6,7-dimethoxy-2-methyl-N-[1-{5-[(E)-2-phenylethenyl]thiophen-2-yl}ethyl]quinazolin-4-amine]	17.6				50	44
C/C=C/c1ccc([C@H](C)Nc2nc(C)nc3cc(OC)c(OC)cc23)s1 (racemic) [Example 177, 6,7-dimethoxy-2-methyl-N-[1-{5-[(1E)-prop-1-en-1-yl]thiophen-2-yl}ethyl]quinazolin-4-amine]	5.77	6.7				49
COc1cc2nc(C)nc(NC(C)c3ccc(-c4ccccc4)o3)c2cc1OC (single isomer, unassigned) [Example 224, 6,7-dimethoxy-2-methyl-N-[1-(5-phenylfuran-2-yl)ethyl]quinazolin-4-amine, enantiomer]	3.6	2.55	9.37			
COc1cc2nc(C)nc(N[C@H](C)c3cc4cccc(OC)c4o3)c2cc1OC (stereo in doubt) [Example 33, 6,7-dimethoxy-N-[1-(7-methoxy-1-benzofuran-2-yl)ethyl]-2-methylquinazolin-4-amine]				53	24	9
COc1cc2nc(C)nc(N[C@@H](C)c3ccc(-c4ccc(N5CCOCC5)cc4)s3)c2cc1OC (stereo in doubt) [Example 43, 6,7-dimethoxy-2-methyl-N-[1-{5-[4-(morpholin-4-yl)phenyl]thiophen-2-yl}ethyl]quinazolin-4-amine]				30	14	16
COc1cc2nc(C)nc(N[C@@H](C)c3ccc(-c4cccc(N5CCOCC5)c4)s3)c2cc1OC (stereo in doubt) [Example 44, 6,7-dimethoxy-2-methyl-N-[1-{5-[3-(morpholin-4-yl)phenyl]thiophen-2-yl}ethyl]quinazolin-4-amine]				55	47	25
CCCOc1ccccc1-c1ccc([C@H](C)Nc2nc(C)nc3cc(OC)c(OC)cc23)s1 (stereo in doubt) [Example 47, 6,7-dimethoxy-2-methyl-N-{1-[5-(2-propoxyphenyl)thiophen-2-yl]ethyl}quinazolin-4-amine]				40	22	17
COc1cc2nc(C)nc(N[C@@H](C)c3ccc(-c4ccccc4)s3)c2cc1OC (stereo in doubt) [Example 70, 6,7-dimethoxy-2-methyl-N-[1-(5-phenylthiophen-2-yl)ethyl]quinazolin-4-amine]	6.82	8.62				47
COc1cc2nc(C)nc(N[C@@H](C)c3ccc(-c4cc(Cl)cc(Cl)c4)s3)c2cc1OC (stereo in doubt) [Example 122, N-{1-[5-(3,5-dichlorophenyl)thiophen-2-yl]ethyl}-6,7-dimethoxy-2-methylquinazolin-4-amine]				46	17	21
COc1cc2nc(C)nc(N[C@@H](C)c3ccc(-c4cccc(-c5nnc(C)o5)c4)s3)c2cc1OC (stereo in doubt) [Example 126, 6,7-dimethoxy-2-methyl-N-[1-{5-[3-(5-methyl-1,3,4-oxadiazol-2-yl)phenyl]thiophen-2-yl}ethyl]quinazolin-4-amine]				52	31	11
COc1cc(F)cc(-c2ccc([C@H](C)Nc3nc(C)nc4cc(OC)c(OC)cc34)s2)c1 (stereo in doubt) [Example 134, N-{1-[5-(3-fluoro-5-methoxyphenyl)thiophen-2-yl]ethyl}-6,7-dimethoxy-2-methylquinazolin-4-amine]				43	23	27
COc1cc2nc(C)nc(N[C@@H](C)c3ccc(-c4cccc(OCc5ccccc5)c4)s3)c2cc1OC (stereo in doubt) [Example 135, N-[1-{5-[3-(benzyloxy)phenyl]thiophen-2-yl}ethyl]-6,7-dimethoxy-2-methylquinazolin-4-amine]				28	5	13
CCCCOc1cccc(F)c1-c1ccc([C@H](C)Nc2nc(C)nc3cc(OC)c(OC)cc23)s1 (stereo in doubt) [Example 136, N-{1-[5-(2-butoxy-6-fluorophenyl)thiophen-2-yl]ethyl}-6,7-dimethoxy-2-methylquinazolin-4-amine]				37	20	18
COc1cc2nc(C)nc(N[C@@H](C)c3ccc(-c4ccc(C(C)(C)C#N)cc4)s3)c2cc1OC (stereo in doubt) [Example 137, 2-[4-(5-{1-[(6,7-dimethoxy-2-methylquinazolin-4-yl)amino]ethyl}thiophen-2-yl)phenyl]-2-methylpropanenitrile]				48	36	32
